Patent EP0344995A2, “Method for inhibiting loss of cognitive functions employing a calcium channel blocker alone or in combination with an ace inhibitor” (E.R. SQUIBB & SONS, INC., priority 1988, dated 1989)

Legend:
[1] = system: Adult male Sprauge-Dawley rats; assay: Extinction of conditioned avoidance response (CAE) in a shuttle box; assay type: in vivo; conditions: 10 mg/kg and 30 mg/kg i.p. on the 2 days prior to testing and 1 hour before it, extinction tested during 14 days vs saline control
Procedure: Adult male Sprauge-Dawley rats (Charles River, Wilmington, MA), age 25 weeks and weighing 350-400 g, are separately housed in stainless steel cages with continuous access to food and water, a 12-hour light-dark cycle, and constant room temperature of 22° to 24 C. All testing took place approximately 6 hours into the dark component of the light-dark cycle and was conducted in a dimly lighted soundproof room using a standard shuttle box device ([…] Valley Electronics #146-04), a plexiglass chamber (50 x 20 x 20 cm) divided by a center barrier 7 cm in height. The conditioned stimulus consisted of a 10-second tone provided by a Sonlert mounted in the midpoint of the ceiling of the chamber. Floor current of 0.8 mA was delivered by a constant current shocker-scrambler ([…] Valley Electronics #133-33). The day before the initiation of training each animal was allowed to explore the experimental chamber for 10 minutes without any tone or shock. Training was conducted for 15 days following the day of experimental chamber exploration. Each animal received 20 trials per day on a 30-second variable interval schedule. No drug treatment was administered during the training period. Shock could be avoided by shuttling from one side of the center barrier to the other during the 10-second tone period. […] Animals which consistently remained on the center barrier were removed from the study. Automatic counters recorded the number of avoidance responses, escapes, and intertrial crossings, while a running time meter recorded the total shock duration for each animal. Animals not meeting the admittance criterion of correct avoidance rsponding on at least 85% of the trials for 4 out of the last 5 days of training were removed from the study. A total of 99 rats reaching the admittance criterion were tested for extinction of conditioned avoidance response (CAE) during 14 days. […] All solutions were prepared fresh and administered i.p. ([…]) on the 2 days prior to testing and then 1 hour before it. […] The tone was simply discontinued and the testing proceeded. Two-way analysis of variance of the CAE data yielded an overall significant difference in the rate of shuttle extinction between treatment groups.

SMILES | protective effects on memory of previously learned tasks (rate of shuttle extinction) [1] | other results
C[C@H](CS)C(=O)N1CCC[C@H]1C(=O)O [captopril] | possess protective effects on memory of previously learned tasks | –
COC(=O)C1=CCCN(C)C1 [arecoline] | – | basal learning (speed of habituation) (Male albino (BKW) mice; mouse, in vivo): the time course of the basic 'learning' or habituation was unaffected
COc1ccc([C@@H]2Sc3ccccc3N(CCN(C)C)C(=O)[C@@H]2OC(C)=O)cc1 [diltiazem] | possess protective effects on memory of previously learned tasks | antagonism of impairment in habituation caused by acute challenge with scopolamine (Male albino (BKW) mice; mice, scopolamine 0.25 mg/kg i.p. acute challenge (days 6 and 10 for diltiazem), arecoline 50 mg/kg/day i.p. infusion, hydergine 0.1 mg/kg p.o. daily, listed as Diltiazem): found to antagonize the impairment in habituation performance
C[C@H](CSC(=O)c1ccccc1)C(=O)N1C[C@@H](Sc2ccccc2)C[C@H]1C(=O)O [zofenopril] | possess protective effects on memory of previously learned tasks | –
C[C@](N)(Cc1ccc(O)c(O)c1)C(=O)O [methyldopa] | do not have protective effects against loss of memory of previously learned tasks | –
C[C@@H](CS)C(=O)N1CCC[C@H]1C(=O)O [epicaptopril] | do not have protective effects against loss of memory of previously learned tasks | –
CN1[C@@H]2C[C@@H](OC(=O)[C@H](CO)c3ccccc3)C[C@H]1[C@@H]1O[C@@H]12 [scopolamine] | – | influence on habituation of the challenge agent, daily challenge (Male albino (BKW) mice; mouse, in vivo): The habituation was impaired throughout the time of scopolamine challenge; autonomic disturbance (Male albino (BKW) mice; mouse, in vivo, ip, 0.25 mg/kg): did not cause autonomic disturbance; effect on vision (Male albino (BKW) mice; mouse, in vivo, ip, 0.25 mg/kg): lack of effect on vision
